Reference: patent publication US6034136A, “Certain cyclic thio substituted acylaminoacid amide derivatives” (Novartis AG, priority 1998, dated 2000)

Columns and labels:
Format in all cases: biochemical
collagenase-3 = collagenase-3 (Homo sapiens, UniProt P45452); assay: Collagenase-3 inhibitory activity (fluorescent substrate MCA-Pro-Leu-Gly-Dpa-Ala-Arg-NH2); settings: room temperature, 10 minutes preincubation, fluorescence; read-out: IC50 for inhibition of collagenase-3 activity
Method: Collagenase-3 inhibitory activity is determined as follows:
[…] solutions of substrate (MCA-Pro-Leu-Gly-Dpa-Ala-Arg-NH2, J. Biol. Chem. 271, 1544-1550, 1996) and 10 nM stock solution of inhibitor are prepared in DMSO. They are diluted with assay buffer ([…] at pH 7.5 containing 10 mM CaCl2, 0.002% sodium azide) as needed. Recombinant pro-collagenase-3 is activated with 1 mM APMA, and stored in the assay buffer after extensive dialysis in the assay buffer. Recombinant enzyme solution (0.05 ml, 1.3 nM) is mixed with 0.05 mL of inhibitor solution at various concentrations for 10 minutes at room temperature. Then 0.025 mL of 8 μM substrate solution is added and fluorescence (λex=325; λem=405) is continuously measured at room temperature. The percent inhibition of collagenase-3 activity is determined from the effect of inhibitor at various concentrations on the change in fluorescence; the IC50 is determined graphically.
Compounds of formula I have an IC50 of about 5 nM to about 100 nM for inhibition of collagenase-3 activity.

[1] = target: T1, Human recombinant fibroblast collagenase (collagenase-1) (Homo sapiens, UniProt P03956); assay: Collagenase-1 inhibitory activity (bovine type I collagen digestion, Coomasie blue); settings: 2 hours at 35° C., read-out: IC50 for inhibition of collagenase-1 activity
T1 sequence (P03956 100-469): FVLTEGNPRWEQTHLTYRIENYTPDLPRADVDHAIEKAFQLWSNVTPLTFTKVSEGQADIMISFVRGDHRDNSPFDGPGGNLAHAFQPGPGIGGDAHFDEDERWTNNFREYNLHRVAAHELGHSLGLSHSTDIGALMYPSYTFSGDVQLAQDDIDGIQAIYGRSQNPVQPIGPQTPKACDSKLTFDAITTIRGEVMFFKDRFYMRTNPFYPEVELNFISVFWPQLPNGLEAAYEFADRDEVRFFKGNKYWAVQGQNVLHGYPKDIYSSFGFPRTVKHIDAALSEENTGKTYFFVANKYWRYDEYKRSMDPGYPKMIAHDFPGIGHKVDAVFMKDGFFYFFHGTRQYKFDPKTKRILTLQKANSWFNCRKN
Method: Collagenase -1 inhibitory activity is determined as follows: ninety six-well, flat-bottom microtiter plates are first coated with bovine type I collagen (35 ug/well) over a two-day period at 30° C. using a humidified and then dry atmosphere; plates are rinsed, air dried for 3-4 hours, sealed with Saran wrap and stored in a refrigerator. Human recombinant fibroblast collagenase and a test compound (or buffer) are added to wells (total volume=0.1 ml) and plates are incubated for 2 hours at 35° C. under humidified conditions; the amount of collagenase used per well is that causing approximately 80% of maximal digestion of collagen. The incubation media are removed from the wells, which are then rinsed with buffer, followed by water. […] Sodium dodecyl sulfate (20% in 50% dimethylformamide in water) is added to solubilize the remaining stained collagen and the optical density at 570 nm wave length is measured. The decrease in optical density due to collagenase (from that of collagen without enzyme) is compared to the decrease in optical density due to the enzyme in the presence of test compound, and percent inhibition of enzyme activity is calculated. IC50 's are determined from a range of concentrations of inhibitors (4-5 concentrations, each tested in triplicate), and KI values are calculated. […]

[2] = target: recombinant human stromelysin (Homo sapiens, UniProt P08254); assay: inhibition of stromelysin activity (hydrolysis of Substance P, HPLC); settings: Substance P substrate, 30 minutes at 37° C.
Chain of recombinant human stromelysin (P08254 100-477): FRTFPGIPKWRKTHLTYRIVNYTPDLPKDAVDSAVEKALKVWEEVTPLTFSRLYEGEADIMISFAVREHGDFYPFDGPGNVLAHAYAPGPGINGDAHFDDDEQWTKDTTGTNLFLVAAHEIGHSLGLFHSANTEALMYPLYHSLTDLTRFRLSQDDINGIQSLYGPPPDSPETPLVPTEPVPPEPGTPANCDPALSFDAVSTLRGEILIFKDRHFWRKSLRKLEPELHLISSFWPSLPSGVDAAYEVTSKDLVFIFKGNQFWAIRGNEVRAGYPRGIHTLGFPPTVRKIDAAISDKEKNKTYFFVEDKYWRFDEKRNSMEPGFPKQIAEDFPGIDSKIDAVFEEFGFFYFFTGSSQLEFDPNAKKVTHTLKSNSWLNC
Method: One test to determine the inhibition of stromelysin activity is based on its hydrolysis of Substance P using a modified procedure of Harrison et al (Harrison, R. A., Teahan J., and Stein R., A semicontinuous, high performance chromatography based assay for stromelysin, Anal. Biochem. 180, 110-113 (1989)). In this assay, Substance P is hydrolyzed by recombinant human stromelysin to generate a fragment, Substance P 7-11, which can be quantitated by HPLC. In a typical assay, a 10 mM stock solution of a compound to be tested is diluted in the assay buffer to 50 μM, mixed 1:1 with 8 μg recombinant human stromelysin (mol. wt. 45-47 kDa, 2 Units; where 1 Unit produces […] of Substance P 7-11 in 30 minutes) and incubated along with 0.5 mM Substance P in a final volume of 0.125 ml for 30 minutes at 37° C. The reaction is stopped by adding 10 mM EDTA and Substance P 7-11 is quantified on RP-8 HPLC. The IC50 for inhibition of stromelysin activity and Ki are calculated from control reaction without the inhibitor.
Compounds of formula I have an IC50 of about 10 nM to about 5 μM for inhibition of stromelysin activity.

Row | IC50 (collagenase-3) [nM] | IC50 [1] [nM] | IC50 [2] [nM] | SMILES
1 | ~20 | ~200 | – | CNC(=O)[C@H](Cc1ccccc1)NC(=O)C1(C(S)CCc2ccccc2)CCCCC1 (stereo partly drawn) [2(d), (S)-2-[N-(1-(1-mercapto-3-phenylpropyl)-cyclohexanecarbonyl)amino]-3-phenylpropionic acid N-methylamide]
2 | – | – | ~70 | CCO[C@H]1CC[C@@](CS)(C(=O)N[C@@H](Cc2ccccc2)C(=O)Nc2ccccc2)CC1 [2(e), (S)-2-[N-(1-mercaptomethyl-cis-4-ethoxycyclohexanecarbonyl)amino]-3-phenylpropionic acid N-phenylamide]
